US11814416B2, “Polypeptide capable of passing through blood-brain barrier” (SHENZHEN RUIJIAN […] COMPANY, priority 2018, dated 2023)
pIC50: −log10 of the molar value. Read-outs that look alike come from different tables or passages of the source.

Test system: CaV2.2 channels (α1B, α2δ1 and β3)
Assay type: cell-based, Rat
Details: for pIC50: read-out: half inhibitory concentration for inhibition of CaV2.2 channel

| Sequence | reduction of the peak Ca2+ current (1 μM) [%] | pIC50 | reduction of the peak Ca2+ current [%] |
| --- | --- | --- | --- |
| CKGKGAKCSRLMYDCCTGSCRSGKCGGGYGRKKRRQRRR [MVIIA-d] | 84.26±3.127 | 6.46 | – |
| CKGKGAKCSRLMYDCCTGSCRSGKCGYGRKKRRQRRR [MVIIA-b] | – | 6.42 | 91.70±1.477 |
| CKGKGAKCSRLMYDCCTGSCRSGKCYGRKKRRQRRR [MVIIA-a] | 89.45±0.752 | 6.38 | – |
| CKGKGAKCSRLMYDCCTGSCRSGKCGGYGRKKRRQRRR [MVIIA-c] | 98.81±0.427 | 6.63 | – |
